Key:
[1] = Plasma protein binding (PPB), mouse; format: in vitro ADME
Huh7 cells = assay: Growth inhibition curves in Huh7 cells; format: cell-based; conditions: Homo sapiens, Huh-7
[2] = Plasma protein binding (PPB), human; format: in vitro ADME
LSF and β-catenin = target: T1, LSF and β-catenin (Homo sapiens, UniProt Q12800); assay: Immunoprecipitation of β-catenin probed for LSF in CRC cells; format: cell-based; conditions: 1 μM, 16 hours, HT-29 and HCT-116 cells
T1 construct: In both these cell lines, LSF co-immunoprecipitated with β-catenin; endogenous in cells; host or cells: HT-29 and HCT-116
T1 sequence (Q12800 1-502): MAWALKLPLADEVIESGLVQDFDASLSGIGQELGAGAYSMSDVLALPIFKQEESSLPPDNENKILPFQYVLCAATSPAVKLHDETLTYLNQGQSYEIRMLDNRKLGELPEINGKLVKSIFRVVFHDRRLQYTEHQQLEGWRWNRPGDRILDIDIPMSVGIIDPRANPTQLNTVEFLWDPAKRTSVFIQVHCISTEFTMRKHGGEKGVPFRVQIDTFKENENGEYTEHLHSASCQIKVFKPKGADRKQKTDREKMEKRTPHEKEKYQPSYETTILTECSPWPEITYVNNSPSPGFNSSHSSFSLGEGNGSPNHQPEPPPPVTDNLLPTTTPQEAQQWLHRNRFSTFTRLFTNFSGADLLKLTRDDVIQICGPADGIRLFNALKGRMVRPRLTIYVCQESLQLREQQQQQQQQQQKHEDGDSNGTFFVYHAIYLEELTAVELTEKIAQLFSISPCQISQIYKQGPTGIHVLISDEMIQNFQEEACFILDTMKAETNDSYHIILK
Description: Immunoprecipitation: The CRC cells were harvested. Proteins of interest were immunoprecipitated using the indicated antibodies at 1:100 concentration. The eluents were resolved by SDS polyacrylamide gel electrophoresis and probed with the indicated antibodies. All the antibodies for immunoblot and immunoprecipitation were acquired from Cell Signaling and were used at the recommended concentrations.

RPE cells [3] = assay: Microtubule sedimentation assay; format: cell-based; conditions: for microtubule stability and α-tubulin acetylation in the microtubule fraction: 4 μM FQI1 (15- and 30-minute pellets), 1 μM nocodazole or taxol 30 minutes
Method: (§1) Cell lysate preparation: For microtubule sedimentation assays, cells were treated as indicated in the figure legends, washed with PBS and incubated in 250 μl of microtubule sedimentation assay lysis buffer (100 mM PIPES pH 6.8, 2 M glycerol, 2 mM EGTA, 5 mM MgCl2, 0.1% Triton X-100) supplemented with 1 μM taxol, protease inhibitor cocktail (1:200, Abcam, ab201111) and phosphatase inhibitor cocktail (1:100, Abcam, ab201115) for 20 minutes at 37° C. Two hundred μl of scraped lysate was centrifuged at 21,000×g for 10 minutes at room temperature. Supernatants were saved as soluble fractions. Pellets were resuspended in 200 μl RIPA buffer (50 mM Tris HCl pH 8.0, 150 mM NaCl, 1% IGEPAL CA630, 0.05% deoxycholic acid) supplemented with 1.05% SDS, protease inhibitor cocktail (1:200) and phosphatase inhibitor cocktail (1:100) and incubated at 100° C. for 15 minutes. Pellet suspensions were centrifuged as before and supernatants were saved as pellet fractions.
(§2) Gel electrophoresis and immunoblotting: Microtubule sedimentation fractions and MLC2 analysis samples were separated by electrophoresis through tris-glycine and tricine polyacrylamide gels, respectively, which were transferred to PVDF membranes. Membranes with microtubule sedimentation fractions and MLC2 analysis samples were blocked in 5% milk in TBST and in 5% BSA in TBST, respectively. After overnight incubation with primary antibody at 4° C., the membranes were washed and incubated with secondary antibody for 1 hour at room temperature. Primary antibodies included anti-α-tubulin (1:2,000, Thermo Fisher Scientific, PA529444), anti-acetylated tubulin (1:1,000, Sigma-Aldrich, T7451), anti-phospho MYL9 (1:200, Thermo Fisher Scientific, PA517727), and anti-β-actin (1:5,000, Sigma-Aldrich, A1978). Secondary antibodies included Goat anti-Rabbit HRP (Thermo Fisher Scientific, 31460; 1:10,000 for anti-α-tubulin; 1:5,000 for anti-phospho MYL9), and Goat anti-Mouse HRP (Thermo Fisher Scientific, 62-6520; 1:5,000 for anti-acetylated tubulin; 1:10,000-1:20,000 for anti-β-actin). Membranes were placed into Pierce™ ECL Western Blotting Substrate (Thermo Fisher Scientific, 32106). Autoradiography film was exposed to each membrane for various times to ensure acquisition of non-saturated exposures. Band intensities were quantified from scanned films by densitometry using ImageJ.

FH-B cells [4] = assay: Microtubule sedimentation assay; format: cell-based, human; conditions: for microtubule stability and α-tubulin acetylation in the microtubule fraction: 4 μM FQI1 (15- and 30-minute pellets), 1 μM nocodazole or taxol 30 minutes
Method: as §1, §2

RPE cells [5] = assay: Wound healing assay; format: cell-based; conditions: 4 μM FQI1 or 1 μM nocodazole, monitored 12 hours
Method: Wound healing analysis: Confluent RPE cells were synchronized by incubating with 2 mM thymidine for 18-20 hours. Two intersecting lines were drawn into the confluent cells using a pipette tip. A phase-contrast image was acquired of the intersection point (“0 h” time-point) on an Olympus IX50 inverted microscope, immediately followed by treatment with the respective inhibitor and 2 mM thymidine. Phase-contrast images of the intersection point were acquired every 2 hours for 12 hours, continuing incubation at 37° C. in 5% CO2 in-between time points. Using ImageJ, the distances between each pair of neighboring vertices of the intersection point at each time-point were measured and normalized to the “0 h” sample.
RPE-hTERT Flp-In cells, propagated in DME M:F12 media with 10% fetal bovine serum at 37° C. in a 5% CO2 humidified incubator, were grown to confluence in 6-well tissue culture plates. One day prior to performing the wound healing assay, the medium was exchanged to also include 2 mM thymidine, so that the cells would stop dividing.
A cross-shaped wound was scratched into each well, and the cells imaged by phase contrast microscopy using at 4× magnification using a Olympus IX50 Inverted microscope. Then the cell media was exchanged to include vehicle (DMSO at 0.01%), 50 nM FQI2-34, 100 nM FQI2-34, or 200 nM FQI2-34; 2 mM thymidine was maintained throughout, as well. Cells were imaged again at 2 h, 4h, 6h, and 8h, in order to measure the migration of the cells into the wound.
Each of the 4 lines across the vertices of the “X” were individually measured from each set of images using ImageJ. Relative distances of cell migration into the wound were obtained by subtracting each of the lengths for 2-8 hour timepoints from the length at the 0 hour timepoint for that line and that sample. The averages of the four changes in lengths per sample were then plotted over time for each concentration of FQI2-34, from […], using Prism software. Triplicate technical replicates were performed for each concentration.

FH-B cells [6] = assay: Cell spreading area / cell compaction by microscopy; format: cell-based, human; conditions: 1 μM nocodazole, 30-60 minutes
Method: (§3) Cells were washed as before, treated with Phalloidin-iFluor 488 Reagent (abcam, ab176753) for 1 hour in 1-5% BSA in PBS, followed by Hoechst 33342 (Thermo Fisher Scientific, H3570) for 5 minutes. Mounting medium (Fisher Scientific, P10144) and cover slips were applied onto dried cells. Individually discernible cells were imaged on an Olympus Fluoview 10i. Using ImageJ, the phalloidin channel was thresholded and area and circularity values were measured and integrated into swarmplots using Python's seaborn library.
For time lapse microscopy, FH-B cells in high μ-dishes were incubated with CellBrite™ Steady Membrane stain (Biotium, 30108-T) for 30-40 minutes in the environmental chamber of a Nikon C2 Si microscope at 37° C. and 5% CO2. Treatments were added to the cells through a syringe to reach final concentrations of 4 μM FQI1 or 0.01% DMSO. Immediately thereafter, a time-lapse series was acquired by imaging every 30 seconds for 30 minutes at 20× magnification.

RPE cells [7] = assay: Cell spreading area and circularity by microscopy; format: cell-based; conditions: 4 μM FQI1 or 1 μM nocodazole, 1 hour
Method: as §3

[8] = test system: RhoA/ROCK pathway in FH-B cells; assay: Phospho-MLC2 immunoblot (RhoA/ROCK pathway); format: cell-based, human; conditions: 1 μM taxol 30 minutes, then 4 μM FQI1 10 minutes
Method: For analysis of phosphorylated MLC2, FH-B cells were treated as indicated in the figure legend, washed with PBS and incubated for 5 minutes in lysis buffer (50 mM Tris-HCl pH 8.0, 50 mM NaF, 5 mM MgCl2, 150 mM NaCl, 1% Triton X-100) supplemented with Tricine Sample Buffer (Bio-rad, 1610739), protease inhibitor cocktail (1:200), phosphatase inhibitor cocktail (1:100), and 1% ([…]. Lysates were incubated at 100° C. for 15 minutes and centrifuged at 21,000×g for 10 minutes prior to SDS-PAGE.
as §2, with “Secondary antibodies included Goat anti-Rabbit HRP (Thermo Fisher Scientific, 31460; 1:10,000 for anti-α-tubulin; 1:5,000 for anti-phospho MYL9), and Goat anti-Mouse HRP (Thermo Fisher Scientific, 62-6520; 1:5,000 for anti-acetylated tubulin; 1:10,000-1:20,000 for anti-β-actin). Membranes were placed into Pierce™ ECL Western Blotting Substrate (Thermo Fisher Scientific, 32106). Autoradiography film was exposed to each membrane for various times to ensure acquisition of non-saturated exposures.” left out

[9] = 10 μM Y-27632 30 minutes, then 4 μM FQI1 30 minutes

CCOc1cc(N(C)C)ccc1-c1cc(=O)[nH]c2cc3c(cc12)OCCO3 [FQI2-37, 9-(4-(dimethylamino)-2-ethoxyphenyl)-2,3-dihydro-[1,4]dioxino[2,3-g]quinolin-7(6H)-one] showed a fraction unbound [1] of 0.06, a GI50 (Huh7 cells) of 14.2 nM and a fraction unbound [2] of 0.08.

Work on CCCOc1cc(N(C)C)ccc1-c1cc(=O)[nH]c2cc3c(cc12)OCO3 [FQI2-134, 8-(4-(dimethylamino)-2-propoxyphenyl)-[1,3]dioxolo[4,5-g]quinolin-6(5H)-one] yielded a GI50 (Huh7 cells) of 260 nM.

CCCOc1cc(N(C)C)ccc1-c1cc(=O)[nH]c2cc3c(cc12)OCCO3 [FQI2-137, 9-(4-(dimethylamino)-2-propoxyphenyl)-2,3-dihydro-[1,4]dioxino[2,3-g]quinolin-7(6H)-one] showed a GI50 (Huh7 cells) of 71 nM.

For CC(C)COc1cc(N(C)C)ccc1-c1cc(=O)[nH]c2cc3c(cc12)OCO3 [FQI2-234, 8-(4-(dimethylamino)-2-isobutoxyphenyl)-[1,3]dioxolo[4,5-g]quinolin-6(5H)-one], the GI50 (Huh7 cells) was 630 nM.

Compound CC(C)COc1cc(N(C)C)ccc1-c1cc(=O)[nH]c2cc3c(cc12)OCCO3 [FQI2-237, 9-(4-(dimethylamino)-2-isobutoxyphenyl)-2,3-dihydro-[1,4]dioxino[2,3-g]quinolin-7(6H)-one] has a GI50 (Huh7 cells) of 467 nM.

Work on CCOc1cc(Br)ccc1-c1cc(=O)[nH]c2cc3c(cc12)OCO3 [FQI2Br, 8-(4-bromo-2-ethoxyphenyl)-[1,3]dioxolo[4,5-g]quinolin-6(5H)-one] yielded a GI50 (Huh7 cells) of 20.4 nM.

For CCOc1cc(Cl)ccc1-c1cc(=O)[nH]c2cc3c(cc12)OCO3 [FQI2Cl, 8-(2-ethoxy-4-chlorophenyl)-[1,3]dioxolo[4,5-g]quinolin-6(5H)-one], the GI50 (Huh7 cells) was 56.2 nM.

In the case of CCOc1cc(C(F)(F)F)ccc1-c1cc(=O)[nH]c2cc3c(cc12)OCO3 [FQI2F3, 8-(2-ethoxy-4-(trifluoromethyl)phenyl)-[1,3]dioxolo[4,5-g]quinolin-6(5H)-one], the GI50 (Huh7 cells) is reported as 56.2 nM.

CCOc1cc(F)ccc1-c1cc(=O)[nH]c2cc3c(cc12)OCO3 [FQI2F, 8-(2-ethoxy-4-fluorophenyl)-[1,3]dioxolo[4,5-g]quinolin-6(5H)-one] gave a GI50 (Huh7 cells) of 56.2 nM.

Compound CCOc1ccccc1-c1cc(=O)[nH]c2cc3c(cc12)OCO3 [FQI2] has a GI50 (Huh7 cells) of 141 nM.

For CCOc1cc(N(C)C)ccc1C1CC(=O)Nc2cc3c(cc21)OCO3 (stereo not shown) [FQI-34, 8-(4-(dimethylamino)-2-ethoxyphenyl)-7,8-dihydro-[1,3]dioxolo[4,5-g]quinolin-6(5H)-one], the fraction unbound [1] was 0.05, the “interaction of LSF and β-catenin (co-immunoprecipitation)” value (LSF and β-catenin) was “consistently reduced this interaction” and the fraction unbound [2] was 0.07.

In the case of CCOc1cc(N(C)C)ccc1C1CC(=O)Nc2cc3c(cc21)OCCO3 (stereo not shown) [FQI-37, 9-(4-(dimethylamino)-2-ethoxyphenyl)-2,3,8,9-tetrahydro-[1,4]dioxino[2,3-g]quinolin-7(6H)-one], the fraction unbound [1] is reported as 0.05, the “interaction of LSF and β-catenin (co-immunoprecipitation)” value (LSF and β-catenin) is reported as “consistently reduced this interaction” and the fraction unbound [2] is reported as 0.07.

For C[C@@H](N)[C@H]1CC[C@H](C(=O)Nc2ccncc2)CC1 [Y-27632], the “FQI1-induced decline in stable microtubules after Y-27632 pre-exposure” value (RPE cells [3]; [9]) was “quantitatively the same decline in stable microtubules as seen in control cells” and the “FQI1-induced decline in stable microtubules after Y-27632 pre-exposure” value (FH-B cells [4]; [9]) was “quantitatively the same decline in stable microtubules as seen in control cells”.

With COC(=O)Nc1nc2ccc(C(=O)c3cccs3)cc2[nH]1 [nocodazole, reference compound] the “migration of cells into the wound” value (RPE cells [5]) was “hindered RPE cells from migrating into the wound”, the “decrease in cell spreading area” value (FH-B cells [6]) was “decrease in cell spreading area was phenocopied” and the circularity (RPE cells [7]) was “significantly more circular in shape”. For the same compound, the “microtubule stability and α-tubulin acetylation in the microtubule fraction” value (RPE cells [3]) was “destabilizes and deacetylates microtubules” and the “microtubule stability and α-tubulin acetylation in the microtubule fraction” value (FH-B cells [4]) was “destabilizes and deacetylates microtubules”.

In the case of CC(=O)O[C@H]1C(=O)[C@@]2(C)[C@H]([C@H](OC(=O)c3ccccc3)[C@]3(O)C[C@H](OC(=O)[C@H](O)[C@@H](NC(=O)c4ccccc4)c4ccccc4)C(C)=C1C3(C)C)[C@]1(OC(C)=O)CO[C@@H]1C[C@@H]2O [taxol], the “microtubule stability and α-tubulin acetylation in the microtubule fraction” value (RPE cells [3]) is reported as “stabilizes and hyperacetylates microtubules”, the “FQI1-induced increase in MLC2 phosphorylation after taxol preincubation” value [8] is reported as “abrogated” and the “microtubule stability and α-tubulin acetylation in the microtubule fraction” value (FH-B cells [4]) is reported as “stabilizes and hyperacetylates microtubules”.

Source: patent US11458132B2, “Quinolin-2(1H)-one inhibitors of Late SV40 Factor” (TRUSTEES OF BOSTON UNIVERSITY, priority 2020, dated 2022)
